Biological target: T1, mutant CFTR (Homo sapiens, UniProt P13569, DEL508-508)
T1 construct: expressed in transfected cells
Assay: Fluorescence (HS-YFP) assay for CFTR activity, corrector assay
Format: cell-based
Details: CFBE41o- and FRT cells with stable expression of mutant CFTR, 24 h compound treatment
Description: Fluorescence Assay for CFTR Activity
Mutant CFTR activity was determined with the functional assay based on the halide-sensitive yellow fluorescent protein, HS-YFP (Galietta et al., FEBS Lett 499: 220-224, 2001). CFBE41o- and FRT cells with stable expression of mutant CFTR and HS-YFP were plated on clear-bottom 96-well black microplates (Code 3603, Corning Life Sciences) at a density of 50,000 cells/well and kept at 37° C. in 5% CO2 for 24 hours. For the corrector assay, cells were treated for further 24 hours with test compounds, vehicle (DMSO), or the positive control VX-809. After treatment, the culture medium was removed and cells in each well were stimulated for 30 min at 37° C. with 60 μL PBS (containing 137 mM NaCl, 2.7 mM KCl, 8.1 mM Na2HPO4, 1.5 mM KH2PO4, 1 mM CaCl2, and 0.5 mM MgCl2) plus forskolin (20 μM) and genistein (50 μM).
For determination of potentiator activity on G551D-CFTR or G1349D-CFTR, cells were directly stimulated with forskolin plus test compound without previous incubation at low temperature. At the time of assay, microplates carrying CFBE41o- or FRT cells were transferred to microplate readers (BMG Labtech) equipped with high-quality excitation (HQ500/20X: 500±10 nm) and emission (HQ535/30M: 535±15 nm) filters for YFP (Chroma Technology). The assay consisted of a continuous 14 s fluorescence reading with 2 s before and 12 s after injection of an iodide-containing solution (165 μL of a modified PBS containing I^− instead of Cl^−; final I^− concentration in the well: 100 mM). Data were normalized to the initial background-subtracted fluorescence. Enhanced CFTR activity, induced by correctors and/or potentiators, results in accelerated I^− influx that in turn causes faster HS-YFP quenching (Pedemonte et al., Mol Pharmacol 68:1736-1746, 2005; Pedemonte et al., J Clin Invest 115:2564-2571, […]). To determine fluorescence quenching rate associated with I^− influx, the […] 10 s of data for each well were fitted with an exponential function to extrapolate initial slope (dF/dt).
EC50 obtained are illustrated in table 1 wherein +: EC50>2 μM; ++: 1.0 μM<EC50<2 μM; +++: EC50<1 μM.

T1 sequence (P13569 with tags, fused parts or gaps DEL508-508): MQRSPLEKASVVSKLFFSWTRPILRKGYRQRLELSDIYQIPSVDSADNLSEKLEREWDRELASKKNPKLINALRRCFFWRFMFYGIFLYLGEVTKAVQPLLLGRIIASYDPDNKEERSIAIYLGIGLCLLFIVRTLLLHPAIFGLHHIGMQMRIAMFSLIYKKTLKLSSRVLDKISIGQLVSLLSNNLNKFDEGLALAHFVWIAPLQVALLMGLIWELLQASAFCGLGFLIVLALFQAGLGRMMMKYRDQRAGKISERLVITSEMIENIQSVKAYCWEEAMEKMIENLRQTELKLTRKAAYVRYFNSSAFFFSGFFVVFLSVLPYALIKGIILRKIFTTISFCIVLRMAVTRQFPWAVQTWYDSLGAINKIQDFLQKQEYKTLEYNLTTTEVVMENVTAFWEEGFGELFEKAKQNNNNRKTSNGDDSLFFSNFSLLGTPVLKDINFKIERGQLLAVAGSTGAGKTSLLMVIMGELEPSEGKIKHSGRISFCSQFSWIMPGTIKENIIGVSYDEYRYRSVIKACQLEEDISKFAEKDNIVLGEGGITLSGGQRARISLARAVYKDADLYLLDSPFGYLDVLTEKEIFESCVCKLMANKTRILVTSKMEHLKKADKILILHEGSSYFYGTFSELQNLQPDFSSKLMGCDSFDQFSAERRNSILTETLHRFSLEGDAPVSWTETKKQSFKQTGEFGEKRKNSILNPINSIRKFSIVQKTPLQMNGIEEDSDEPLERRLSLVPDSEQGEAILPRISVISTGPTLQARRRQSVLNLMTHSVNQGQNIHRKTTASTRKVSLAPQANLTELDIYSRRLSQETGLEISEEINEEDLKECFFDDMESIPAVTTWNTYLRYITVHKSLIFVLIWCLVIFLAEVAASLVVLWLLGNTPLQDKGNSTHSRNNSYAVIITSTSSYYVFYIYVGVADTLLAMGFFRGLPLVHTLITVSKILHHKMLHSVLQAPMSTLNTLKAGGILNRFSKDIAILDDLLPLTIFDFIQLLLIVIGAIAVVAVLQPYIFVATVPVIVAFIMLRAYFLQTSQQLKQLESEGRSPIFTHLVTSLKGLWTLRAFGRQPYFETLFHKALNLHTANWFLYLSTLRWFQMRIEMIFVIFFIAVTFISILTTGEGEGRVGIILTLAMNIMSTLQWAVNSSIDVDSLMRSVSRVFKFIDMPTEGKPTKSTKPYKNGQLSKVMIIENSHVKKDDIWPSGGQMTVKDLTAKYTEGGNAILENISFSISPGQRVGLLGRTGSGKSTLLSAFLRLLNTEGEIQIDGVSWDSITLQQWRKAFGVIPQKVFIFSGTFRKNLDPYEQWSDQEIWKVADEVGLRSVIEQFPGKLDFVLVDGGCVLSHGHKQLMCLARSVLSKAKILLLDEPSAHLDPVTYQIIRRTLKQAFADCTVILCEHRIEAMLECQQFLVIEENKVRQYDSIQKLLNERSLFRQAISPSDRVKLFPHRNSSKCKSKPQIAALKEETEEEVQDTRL

Compound	EC50
CN(C(=O)c1cccc(-n2nc(C(F)(F)F)c(C=O)c2Oc2ccccc2)c1)c1ccc2c(c1)OCO2 [compound 180, N-(1,3-Benzodioxol-5-yl)-3-[4-formyl-5-phenoxy-3-(trifluoromethyl)pyrazol-1-yl]-N-methyl-benzamide]	< 1000 nM
CN(C(=O)c1cccc(-n2nc(C(F)(F)F)cc2-c2cccs2)c1)c1ccc2c(c1)OCO2 [compound 166, N-(1,3-Benzodioxol-5-yl)-N-methyl-3-[5-(2-thienyl)-3-(trifluoromethyl)pyrazol-1-yl]benzamide]	< 1000 nM
Cc1c(Cl)c(C(F)(F)F)nn1-c1cccc(C(=O)N(C)c2cc3c(cc2CO)OCO3)c1 [compound 168, 3-[4-chloro-5-methyl-3-(trifluoromethyl)pyrazol-1-yl]-N-[6-(hydroxymethyl)-1,3-benzodioxol-5-yl]-N-methyl-benzamide]	1000 to 2000 nM
CCOC(=O)CCC(=O)N1CCC(Oc2cc(C(F)(F)F)nn2-c2cccc(C(=O)N(C)c3ccc4c(c3)OC(F)(F)O4)c2)CC1 [compound 260, Ethyl 4-[4-[2-[3-[(2,2-difluoro-1,3-benzodioxol-5-yl)-methyl-carbamoyl]phenyl]-5-(trifluoromethyl)pyrazol-3-yl]oxy-1-piperidyl]-4-oxo-butanoate]	< 1000 nM
Cc1nn(-c2cccc(C(=O)N(C)c3ccccc3)c2)c(C)c1Cl [compound 007, 3-(4-Chloro-3,5-dimethyl-pyrazol-1-yl)-N-methyl-N-phenyl-benzamide]	> 2000 nM
Cc1nn(-c2cccc(C(=O)Nc3ccc4c(c3)OCO4)c2)c(C)c1Cl [Int-012, N-(1,3-Benzodioxol-5-yl)-3-(4-chloro-3,5-dimethyl-pyrazol-1-yl)benzamide]	> 2000 nM
Cc1nn(-c2cccc(C(=O)N(C)c3ccc4oc(C(F)(F)F)nc4c3)c2)c(C)c1Cl [compound 078, 3-(4-Chloro-3,5-dimethyl-pyrazol-1-yl)-N-methyl-N-[2-(trifluoromethyl)-1,3-benzoxazol-5-yl]benzamide]	> 2000 nM
[2H]C([2H])([2H])N(C(=O)c1cccc(-n2nc(C(F)(F)F)c(Cl)c2COc2ccc(C(=O)OC(C)(C)C)cc2)c1)c1ccc2c(c1)OC(F)(F)O2 [compound 181, Tert-butyl 4-[[4-chloro-2-[3-[(2,2-difluoro-1,3-benzodioxol-5-yl)-(trideuteriomethyl)carbamoyl]phenyl]-5-(trifluoromethyl)pyrazol-3-yl]methoxy]benzoate]	< 1000 nM
Cc1c(Cl)c(C(F)(F)F)nn1-c1cccc(C(=O)Nc2ccc3c(c2C=O)OCO3)c1 [Int-203, 3-[4-chloro-5-methyl-3-(trifluoromethyl)pyrazol-1-yl]-N-(4-formyl-1,3-benzodioxol-5-yl)benzamide]	> 2000 nM
Cc1cc(C)n(-c2cccc(C(=O)N(C)c3ccc4c(c3)OCCO4)c2)n1 [compound 011, N-(2,3-Dihydro-1,4-benzodioxin-6-yl)-3-(3,5-dimethylpyrazol-1-yl)-N-methyl-benzamide]	> 2000 nM
CN(C(=O)c1cccc(-n2nc(C(F)(F)F)c(Cl)c2COc2ccc(C(=O)O)cc2)c1)c1cnc2c(c1)OCO2 [compound 267, 4-[[4-Chloro-2-[3-[[1,3]dioxolo[4,5-b]pyridin-6-yl (methyl)carbamoyl]phenyl]-5-(trifluoromethyl)pyrazol-3-yl]methoxy]benzoic acid]	< 1000 nM
Cc1cn2cc(N(C)C(=O)c3cccc(-n4nc(C)c(Cl)c4C)c3)ccc2n1 [compound 077, 3-(4-Chloro-3,5-dimethyl-pyrazol-1-yl)-N-methyl-N-(2-methylimidazo[1,2-a]pyridin-6-yl)benzamide]	< 1000 nM
CN(C(=O)c1cccc(-n2nc(C(F)(F)F)cc2COc2ccc(C(=O)O)cc2)c1)c1ccc2c(c1)OC(F)(F)O2 [compound 218, 4-[[2-[3-[(2,2-difluoro-1,3-benzodioxol-5-yl)-methyl-carbamoyl]phenyl]-5-(trifluoromethyl)pyrazol-3-yl]methoxy]benzoic acid]	< 1000 nM
CN(C(=O)c1cccc(-n2nc(C(F)(F)F)c(Cl)c2OCc2ccc(C(=O)O)cc2)c1)c1ccc2c(c1)OCO2 [compound 159, 4-[[2-[3-[1,3-Benzodioxol-5-yl(methyl)carbamoyl]phenyl]-4-chloro-5-(trifluoromethyl)pyrazol-3-yl]oxymethyl]benzoic acid]	< 1000 nM
CN(C(=O)c1cccc(-n2nc(C(F)(F)F)c(Cl)c2COc2ccc(C(=O)O)cc2)c1)c1ccc2c(c1)OC(F)(F)O2 [compound 177, 4-[[4-chloro-2-[3-[(2,2-difluoro-1,3-benzodioxol-5-yl)-methyl-carbamoyl]phenyl]-5-(trifluoromethyl)pyrazol-3-yl]methoxy]benzoic acid]	< 1000 nM
CN(C(=O)c1cccc(-n2nc(C(F)(F)F)c(Cl)c2CO)c1)c1ccc2c(c1)OC(F)(F)O2 [compound 217, 3-[4-Chloro-5-(hydroxymethyl)-3-(trifluoromethyl)pyrazol-1-yl]-N-(2,2-difluoro-1,3-benzodioxol-5-yl)-N-methyl-benzamide]	< 1000 nM
Cc1ccc(C(=O)N(C)c2ccc3c(c2)OCO3)cc1-n1nc(C)c(Cl)c1C [compound 082, N-(1,3-Benzodioxol-5-yl)-3-(4-chloro-3,5-dimethyl-pyrazol-1-yl)-N,4-dimethyl-benzamide]	1000 to 2000 nM
Cc1nn(-c2cccc(C(=O)Nc3ccc4oc(C(C)C)nc4c3)c2)c(C)c1Cl [Int-061, 3-(4-Chloro-3,5-dimethyl-pyrazol-1-yl)-N-(2-isopropyl-1,3-benzoxazol-5-yl)benzamide]	> 2000 nM
Cc1nn(-c2cccc(C(=O)N(C)c3ccc4c(c3)CCC4)c2)c(C)c1Cl [compound 023, 3-(4-chloro-3,5-dimethyl-pyrazol-1-yl)-N-indan-5-yl-N-methyl-benzamide]	< 1000 nM
Cc1nc2cc(F)c(N(C)C(=O)c3cccc(-n4nc(C(F)(F)F)cc4OCc4ccc(C(=O)O)cc4)c3)cc2o1 [compound 196, 4-[[2-[3-[(5-Fluoro-2-methyl-1,3-benzoxazol-6-yl)-methyl-carbamoyl]phenyl]-5-(trifluoromethyl)pyrazol-3-yl]oxymethyl]benzoic acid]	< 1000 nM
Cc1nn(-c2cccc(C(=O)Nc3ccc4oc(C5CC5)nc4c3)c2)c(C)c1Cl [Int-053, 3-(4-Chloro-3,5-dimethyl-pyrazol-1-yl)-N-(2-cyclopropyl-1,3-benzoxazol-5-yl)benzamide]	> 2000 nM
Cc1c(Cl)c(C(F)(F)F)nn1-c1cccc(C(=O)Nc2cc3c(cc2C(=O)O)OCO3)c1 [Int-178, 6-[[3-[4-chloro-5-methyl-3-(trifluoromethyl)pyrazol-1-yl]benzoyl]amino]-1,3-benzodioxole-5-carboxylic acid]	> 2000 nM
CN(C(=O)c1cccc(-n2nc(C(F)(F)F)c(Cl)c2CO[C@H]2CC[C@H](C(=O)O)CC2)c1)c1ccc2c(c1)OC(F)(F)O2 [compound 228, Trans-4-[[4-chloro-2-[3-[(2,2-difluoro-1,3-benzodioxol-5-yl)-methyl-carbamoyl]phenyl]-5-(trifluoromethyl)pyrazol-3-yl]methoxy]cyclohexanecarboxylic acid]	< 1000 nM
CN(C(=O)c1cccc(-n2nc(C(F)(F)F)c(Cl)c2OCc2ccc(C(=O)OC(C)(C)C)cc2)c1)c1ccc2c(c1)OC(F)(F)O2 [compound 201, Tert-butyl 4-[[4-chloro-2-[3-[(2,2-difluoro-1,3-benzodioxol-5-yl)-methyl-carbamoyl]phenyl]-5-(trifluoromethyl)pyrazol-3-yl]oxymethyl]benzoate]	< 1000 nM
COC(=O)c1ccc(COc2c(Cl)c(C(F)(F)F)nn2-c2cccc(C(=O)N(C)c3cc4c(cc3Cl)OCO4)c2)cc1 [compound 156, Methyl 4-[[4-chloro-2-[3-[(6-chloro-1,3-benzodioxol-5-yl)-methyl-carbamoyl]phenyl]-5-(trifluoromethyl)pyrazol-3-yl]oxymethyl]benzoate]	< 1000 nM
COCc1c(Cl)c(C)nn1-c1cccc(C(=O)N(C)c2ccc3c(c2)OCO3)c1 [compound 107, N-(1,3-benzodioxol-5-yl)-3-[4-chloro-5-(methoxymethyl)-3-methyl-pyrazol-1-yl]-N-methyl-benzamide]	< 1000 nM
Cc1nn(-c2cccc(C(=O)N(C)c3ccc4c(c3)OC(C)(C)O4)c2)c(C)c1Cl [compound 034, 3-(4-Chloro-3,5-dimethyl-pyrazol-1-yl)-N-(2,2-dimethyl-1,3-benzodioxol-5-yl)-N-methyl-benzamide]	> 2000 nM
Cc1c(N(C)C(=O)c2cccc(-n3nc(C(F)(F)F)c(Cl)c3C)c2)ccc2c1OCO2 [compound 269, 3-[4-chloro-5-methyl-3-(trifluoromethyl)pyrazol-1-yl]-N-methyl-N-(4-methyl-1,3-benzodioxol-5-yl)benzamide]	> 2000 nM
